Source: patent US8415351B2 (priority 2007, dated 2013)
Counter-ions that a name gives are not always drawn. Like-named read-outs stand apart in the source and are kept apart here.

How the values were obtained:
[1] = molecular target: T1, HCV polymerase 1B (Δ21 NS5B, BK) (Hepatitis C virus genotype 1b, UniProt P26663); assay: biochemical
T1 construct: 20 to 50 nM Δ21 NS5B
Description: (§1) HCV Polymerase Inhibition Assay
(§2) Either two-fold serial dilutions (fractional inhibition assay) or a narrower range of dilutions spanning the IC50 of the inhibitor (tight binding assay) of the inhibitors were incubated with 20 mM Tris-Cl pH 7.4, 2 mM MnCl2, 1 mM dithiothreitol, 1 mM ethylene diamine tetraacetic acid (EDTA), 60 to 125 μM GTP and 20 to 50 nM Δ21 NS5B (HCV Strain 1B (BK, Genbank accession number M58335, or H77, Genbank accession number AF011751)) for 15 min at room temperature. The reaction was initiated by the addition of 20 μM CTP, 20 μM ATP, 1 μM ^3H-UTP (10 mCi/umol), 5 nM template RNA and 0.1 U/μl RNase inhibitor (RNasin, Promega), and allowed to proceed for 2 to 4 h at room temperature. Reaction volume was 50 μl. The reaction was terminated by the addition of 1 volume of 4 mM spermine in 10 mM Tris-Cl pH 8.0, 1 mM EDTA. After incubation for at least 15 min at room temperature, the precipitated RNA was captured by filtering through a GF/B filter (Millipore) in a 96 well format. The filter plate was washed three times with 200 μl each of 2 mM spermine, 10 mM Tris-Cl pH 8.0, 1 mM EDTA, and 2 times with ethanol. After air-drying, 30 μl of Microscint 20 scintillation cocktail (Packard) was added to each well, and the retained cpm were determined by scintillation counting. […] Retained cpm were plotted vs. inhibitor concentration and fit to equation 1 using non-linear regression (ref. 1) to obtain the IC50 values: Retained cpm=A[sqrt{(IC50+It−Et)^2+4*IC50*Et}−(IC50+It−Et)]
Ref. Morrison, J. F. and S. R. Stone. 1985. Approaches to the study and analysis of the inhibition of enzymes by slow- and tight-binding inhibitors. Comments Mol. Cell. Biophys. 2: 347-368.
The sequence of the template RNA used was: 5′-[…] […] […] […] […] […] […] […] […] […] […] […] […] […] […] […] […]-3′ (SEQ ID NO: 1)

[2] = molecular target: T2, HCV polymerase 1A (Δ21 NS5B, H77) (Hepatitis C virus genotype 1a, UniProt P27958); assay: biochemical
T2 construct: 20 to 50 nM Δ21 NS5B
T2 sequence (P27958 2421-2990, stated change not applied): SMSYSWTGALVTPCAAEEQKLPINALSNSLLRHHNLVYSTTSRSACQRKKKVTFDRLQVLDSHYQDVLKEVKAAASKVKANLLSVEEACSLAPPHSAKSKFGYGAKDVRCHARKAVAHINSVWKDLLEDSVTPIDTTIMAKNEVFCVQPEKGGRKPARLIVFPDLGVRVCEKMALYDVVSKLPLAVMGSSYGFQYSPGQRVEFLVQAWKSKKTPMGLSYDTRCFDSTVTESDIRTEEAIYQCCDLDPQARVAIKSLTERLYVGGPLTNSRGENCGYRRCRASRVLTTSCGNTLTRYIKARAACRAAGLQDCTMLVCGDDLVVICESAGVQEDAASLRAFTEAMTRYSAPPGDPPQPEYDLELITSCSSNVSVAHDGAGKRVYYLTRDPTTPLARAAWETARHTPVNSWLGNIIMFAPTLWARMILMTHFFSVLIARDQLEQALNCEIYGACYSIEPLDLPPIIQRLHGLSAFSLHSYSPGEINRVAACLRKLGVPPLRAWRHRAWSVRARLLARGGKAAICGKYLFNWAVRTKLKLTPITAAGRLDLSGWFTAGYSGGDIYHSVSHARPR
Description: as §1
as §2, with “The” for “Either two-fold serial dilutions (fractional inhibition assay) or a narrower range of dilutions spanning the IC50 of the inhibitor (tight binding assay) of the inhibitors were incubated with 20 mM Tris-Cl pH 7.4, 2 mM MnCl2, 1 mM dithiothreitol, 1 mM ethylene diamine tetraacetic acid (EDTA), 60 to 125 μM GTP and 20 to 50 nM Δ21 NS5B (HCV Strain 1B (BK, Genbank accession number M58335, or H77, Genbank accession number AF011751)) for 15 min at room temperature. The”
Ref. Morrison, J. F. and S. R. Stone. […] Approaches to the study and analysis of the inhibition of enzymes by slow- and tight-binding inhibitors. Comments Mol. Cell. Biophys.
The sequence of the template RNA used was: 5′-[…]

T1 sequence (P26663 2420-2989, stated change not applied): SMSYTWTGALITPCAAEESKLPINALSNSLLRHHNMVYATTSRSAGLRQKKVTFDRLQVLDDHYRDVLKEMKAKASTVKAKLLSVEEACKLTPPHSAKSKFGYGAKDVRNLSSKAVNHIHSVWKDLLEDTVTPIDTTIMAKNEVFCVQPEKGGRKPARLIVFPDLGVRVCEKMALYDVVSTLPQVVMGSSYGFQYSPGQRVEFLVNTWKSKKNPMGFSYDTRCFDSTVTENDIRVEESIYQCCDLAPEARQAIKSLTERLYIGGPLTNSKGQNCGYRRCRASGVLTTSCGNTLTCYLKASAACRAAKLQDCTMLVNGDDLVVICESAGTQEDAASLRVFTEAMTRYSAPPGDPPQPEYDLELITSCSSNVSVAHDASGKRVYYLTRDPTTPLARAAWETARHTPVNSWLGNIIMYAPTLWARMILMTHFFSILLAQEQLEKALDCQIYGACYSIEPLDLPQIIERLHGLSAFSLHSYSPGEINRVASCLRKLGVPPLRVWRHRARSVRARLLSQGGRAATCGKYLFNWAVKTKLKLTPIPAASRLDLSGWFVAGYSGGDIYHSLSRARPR

Structure (SMILES) | IC50 [1] | IC50 ([2]; IC50 1a) | IC50 ([1]; HCV polymerase 1b, read-out: IC50 1b) | IC50 ([2]; read-out: IC50 1a)
COc1c(C(=O)Nc2ccccc2S(N)(=O)=O)cc(N2CCC(=O)NC2=O)cc1C(C)(C)C [IA-L3-1.80, 3-tert-butyl-5-(2,4-dioxotetrahydropyrimidin-1(2H)-yl)-2-methoxy-N-(2-sulfamoylphenyl)benzamide] | > 1000 nM | > 1000 nM | – | –
COc1c(-c2ncc(-c3cccc([N+](=O)[O-])c3)o2)cc(N2CCC(=O)NC2=O)cc1C(C)(C)C [IA-L0-1.10, 1-(3-tert-butyl-4-methoxy-5-(5-(3-nitrophenyl)oxazol-2-yl)phenyl)dihydropyrimidine-2,4(1H,3H)-dione] | > 1000 nM | > 1000 nM | – | –
CC(C)(C)c1cc(N2CCC(=O)NC2=O)cc(CN2CCC[C@@H](O)C2)c1O [IA-L5-1-1.6, 1-[3-tert-butyl-4-hydroxy-5-((R)-3-hydroxy-piperidin-1-ylmethyl)-phenyl]-dihydro-pyrimidine-2,4-dione; compound with trifluoroacetic acid] | > 1000 nM | > 1000 nM | – | –
COC(=O)C1CCN(Cc2cc(N3CCC(=O)NC3=O)cc(C(C)(C)C)c2O)CC1 [IA-L5-1-1.5, 1-[3-tert-butyl-5-(2,4-dioxo-tetrahydro-pyrimidin-1-yl)-2-hydroxy-benzyl]-piperidine-4-carboxylic acid methyl ester] | > 1000 nM | > 1000 nM | – | –
COc1c(C(=O)Nc2ccc(N(COC(=O)C(C)(C)C)S(C)(=O)=O)cc2)cc(N2CCC(=O)NC2=O)cc1C(C)(C)C [IA-L3-1.65, (N-(4-(3-tert-butyl-5-(2,4-dioxotetrahydropyrimidin-1(2H)-yl)-2-methoxybenzamido)phenyl)methylsulfonamido)methyl pivalate] | > 1000 nM | > 1000 nM | – | –
CCOC(=O)C1CCCN(Cc2cc(N3CCC(=O)NC3=O)cc(C(C)(C)C)c2O)C1 (stereo not shown) [IA-L5-1-1.3, 1-[3-tert-butyl-5-(2,4-dioxo-tetrahydro-pyrimidin-1-yl)-2-hydroxy-benzyl]-piperidine-3-carboxylic acid ethyl ester] | > 1000 nM | > 1000 nM | – | –
CC(C)(C)c1cc(N2CCC(=O)NC2=O)cc(CNc2ccc(NS(C)(=O)=O)cc2)c1O [IA-L9-1.3, N-(4-(3-tert-butyl-5-(2,4-dioxotetrahydropyrimidin-1(2H)-yl)-2-hydroxybenzylamino)phenyl)methanesulfonamide] | > 1000 nM | > 1000 nM | – | –
CC1CCCN(Cc2cc(N3CCC(=O)NC3=O)cc(C(C)(C)C)c2O)C1 (stereo not shown) [IA-L5-1-1.4, 1-[3-tert-butyl-4-hydroxy-5-(3-methyl-piperidin-1-ylmethyl)-phenyl]-dihydro-pyrimidine-2,4-dione; compound with trifluoroacetic acid] | > 1000 nM | > 1000 nM | – | –
CC(C)(C)c1cc(N2CCC(=O)NC2=O)cc(NC(=O)c2ccc([N+](=O)[O-])cc2)c1O [IA-L4-1.5, N-(3-tert-butyl-5-(2,4-dioxotetrahydropyrimidin-1(2H)-yl)-2-hydroxyphenyl)-4-nitro benzamide] | – | – | > 1000 nM | > 1000 nM
CS(=O)(=O)Nc1ccc(NC(=O)c2cc(N3CCC(=O)NC3=O)ccc2O)cc1 [IA-L3-1.114, 5-(2,4-dioxotetrahydropyrimidin-1(2H)-yl)-2-hydroxy-N-(4-(methylsulfonamido)phenyl)benzamide] | > 1000 nM | > 1000 nM | – | –
CC(C)(C)c1cc(N2CCC(=O)NC2=O)cc(CN2CCC(NS(C)(=O)=O)C2)c1O (stereo not shown) [IA-L5-1-1.11, N-{1-[3-tert-butyl-5-(2,4-dioxo-tetrahydro-pyrimidin-1-yl)-2-hydroxy-benzyl]-pyrrolidin-3-yl}-methanesulfonamide] | > 1000 nM | > 1000 nM | – | –
CCN(c1ccc(NC(=O)c2cc(N3CCC(=O)NC3=O)cc(C(C)(C)C)c2OC)cc1)S(C)(=O)=O [IA-L3-1.63, 3-tert-butyl-5-(2,4-dioxotetrahydropyrimidin-1(2H)-yl)-N-(4-(N-ethylmethylsulfonamido)phenyl)-2-methoxybenzamide] | > 1000 nM | > 1000 nM | – | –
CC(C)(C)c1cc(N2CCC(=O)NC2=O)cc(NC(=O)c2ccc(N)cc2)c1O [IA-L4-1.6, 4-amino-N-(3-tert-butyl-5-(2,4-dioxotetrahydropyrimidin-1(2H)-yl)-2-hydroxyphenyl)benzamide] | > 1000 nM | > 1000 nM | – | –
CCN(CC)C(=O)C1CCCN(Cc2cc(N3CCC(=O)NC3=O)cc(C(C)(C)C)c2O)C1 (stereo not shown) [IA-L5-1-1.7, 1-[3-tert-butyl-5-(2,4-dioxo-tetrahydro-pyrimidin-1-yl)-2-hydroxy-benzyl]-piperidine-3-carboxylic acid diethylamide, trifluoroacetic acid salt] | > 1000 nM | > 1000 nM | – | –
COc1c(C(=O)Nc2ccc(N(COC(C)=O)S(C)(=O)=O)cc2)cc(N2CCC(=O)NC2=O)cc1C(C)(C)C | > 1000 nM | 100 to 1000 nM | – | –
CCN(Cc1cc(N2CCC(=O)NC2=O)cc(C(C)(C)C)c1O)C1CCCCC1 [IA-L9-1.1, 1-(3-tert-butyl-5-((cyclohexyl(ethyl)amino)methyl)-4-hydroxyphenyl)dihydropyrimidine-2,4(1H,3H)-dione 2,2,2-trifluoroacetate] | > 1000 nM | > 1000 nM | – | –
CCOC(=O)CC(=O)c1ccc(NC(=O)c2cc(N3CCC(=O)NC3=O)cc(C(C)(C)C)c2OC)cc1 [IA-L3-1.43, ethyl 3-(4-(3-tert-butyl-5-(2,4-dioxotetrahydropyrimidin-1(2H)-yl)-2-methoxybenzamido)phenyl)-3-oxopropanoate] | > 1000 nM | > 1000 nM | – | –
COc1c(C(=O)Nc2ccc(N(CC3CC3)S(C)(=O)=O)cc2)cc(N2CCC(=O)NC2=O)cc1C(C)(C)C [IA-L3-1.66, 3-tert-butyl-N-(4-(N-(cyclopropylmethyl)methylsulfonamido)phenyl)-5-(2,4-dioxotetrahydropyrimidin-1(2H)-yl)-2-methoxybenzamide] | > 1000 nM | > 1000 nM | – | –
CC(C)(C)c1cc(N2CCC(=O)NC2=O)cc(CN2CCCC(C(N)=O)C2)c1O (stereo not shown) [IA-L5-1-1.8, 1-[3-tert-butyl-5-(2,4-dioxo-tetrahydro-pyrimidin-1-yl)-2-hydroxy-benzyl]-piperidine-3-carboxylic acid amide, trifluoroacetic acid salt] | > 1000 nM | > 1000 nM | – | –
COC(=O)N(c1ccc(NC(=O)c2cc(N3CCC(=O)NC3=O)cc(C(C)(C)C)c2OC)cc1)S(C)(=O)=O [IA-L3-1.73, Methyl 4-(3-tert-butyl-5-(2,4-dioxotetrahydropyrimidin-1(2H)-yl)-2-methoxybenzamido) phenyl(methylsulfonyl)carbamate] | > 1000 nM | > 1000 nM | – | –
CC(C)(C)c1cc(N2CCC(=O)NC2=O)cc(CN2CCCC(CNS(C)(=O)=O)C2)c1O (stereo not shown) [IA-L5-1-1.2, N-{1-[3-tert-butyl-5-(2,4-dioxo-tetrahydro-pyrimidin-1-yl)-2-hydroxy-benzyl]-piperidin-3-ylmethyl}-methanesulfonamide] | > 1000 nM | > 1000 nM | – | –
COc1c(-c2ncc(-c3ccc([N+](=O)[O-])cc3)o2)cc(N2CCC(=O)NC2=O)cc1C(C)(C)C [IA-L0-1.11, 1-(3-tert-butyl-4-methoxy-5-(5-(4-nitrophenyl)oxazol-2-yl)phenyl)dihydropyrimidine-2,4(1H,3H)-dione] | > 1000 nM | > 1000 nM | – | –
CN(Cc1cc(N2CCC(=O)NC2=O)cc(C(C)(C)C)c1O)C1CCCCC1 [IA-L9-1.2, 1-(3-tert-butyl-5-((cyclohexyl(methyl)amino)methyl)-4-hydroxyphenyl)dihydro pyrimidine-2,4(1H,3H)-dione 2,2,2-trifluoroacetate] | > 1000 nM | > 1000 nM | – | –
